Patent publication US7309701B2, “Pyridazinone derivatives as pharmaceuticals and pharmaceutical compositions containing them” (Sanofi-Aventis Deutschland GmbH, priority 2002, dated 2007)

Target: human recombinant GSK-3β (Homo sapiens, UniProt P49841)
Test: GSK-3β activity, AlphaScreen with primed glycogen synthase substrate peptide
Assay type: biochemical
Settings: not given
Protocol: GSK-β activity was measured using human recombinant GSK-3β and a primed (pre-phosphorylated) substrate peptide (derived from glycogen synthase and containing the phosphorylation sites 3a, b, and c) on basis of the AlphaScreen technology in 384-well plate format (small volume plate, white, GREINER).

Sequence of human recombinant GSK-3β (P49841 whole entry): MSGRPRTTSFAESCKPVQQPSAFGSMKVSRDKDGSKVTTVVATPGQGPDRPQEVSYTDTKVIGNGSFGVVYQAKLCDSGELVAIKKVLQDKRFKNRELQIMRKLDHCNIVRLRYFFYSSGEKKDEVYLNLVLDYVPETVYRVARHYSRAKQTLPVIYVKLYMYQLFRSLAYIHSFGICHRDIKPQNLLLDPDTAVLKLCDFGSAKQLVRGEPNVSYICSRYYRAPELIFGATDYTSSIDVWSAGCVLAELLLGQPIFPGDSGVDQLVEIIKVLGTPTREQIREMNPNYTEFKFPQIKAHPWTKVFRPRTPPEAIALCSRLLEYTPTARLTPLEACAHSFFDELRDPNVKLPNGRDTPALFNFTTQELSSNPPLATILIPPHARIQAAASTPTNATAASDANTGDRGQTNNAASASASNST

| IC50 | Structure (SMILES) |
| --- | --- |
| 39 nM | O=C(NCc1ccc(Cl)cc1)c1cc(-c2ccc(O)c(F)c2)n[nH]c1=O [Example 183, 6-(3-Fluoro-4-hydroxy-phenyl)-3-oxo-2,3-dihydro-pyridazine-4-carboxylic acid 4-chloro-benzylamide] |
| 36 nM | CCCCNc1nccc(-c2cc(C(=O)NCCCc3cccnc3)c(=O)[nH]n2)n1 [Example 220, 6-(2-Butylamino-pyrimidin-4-yl)-3-oxo-2,3-dihydro-pyridazine-4-carboxylic acid (3-pyridin-3-yl-propyl)-amide] |

| Structure (SMILES) | IC50 |
| --- | --- |
| O=C(NCc1ccc(F)cc1F)c1cc(-c2ccncc2)n[nH]c1=O [Example 117, 3-Oxo-6-pyridin-4-yl-2,3-dihydro-pyridazine-4-carboxylic acid 2,4-difluoro-benzylamide;compound withtrifluoro-acetic acid] | 65 nM |

Same assay, conditions: human recombinant GSK-3β, 10 μM ATP, 60 min at room temperature, AlphaScreen; read-out: IC50

| Structure (SMILES) | IC50 |
| --- | --- |
| Cc1cc(-c2cc(C(=O)NCCCc3cccnc3)c(=O)[nH]n2)cc(C)c1O [Example 48, 6-(4-Hydroxy-3,5-dimethyl-phenyl)-3-oxo-2,3-dihydro-pyridazine-4-carboxylic acid (3-pyridin-3-yl-propyl)-amide] | 36 nM |
| O=C(NCc1ccc(C(F)(F)F)cc1)c1cc(-c2ccncc2)n[nH]c1=O [Example 112, 3-Oxo-6-pyridin-4-yl-2,3-dihydro-pyridazine-4-carboxylic acid 4-trifluoromethyl-benzylamide;compound withtrifluoro-acetic acid] | 123 nM |
| O=C(NCc1ccc(Cl)cc1F)c1cc(-c2ccncc2)n[nH]c1=O [Example 116, 3-Oxo-6-pyridin-4-yl-2,3-dihydro-pyridazine-4-carboxylic acid 4-chloro-2-fluoro-benzylamide;compound withtrifluoro-acetic acid] | 250 nM |
| CCNc1nccc(-c2cc(C(=O)NCc3ccc(Cl)cc3)c(=O)[nH]n2)n1 [Example 190, 6-(2-Ethylamino-pyrimidin-4-yl)-3-oxo-2,3-dihydro-pyridazine-4-carboxylic acid 4-chloro-benzylamide] | > 1000 nM |
| O=C(Nc1ccncc1)c1ccc(CNC(=O)c2cc(-c3ccncc3)n[nH]c2=O)cc1 [Example 156, 3-Oxo-6-pyridin-4-yl-2,3-dihydro-pyridazine-4-carboxylic acid 4-(pyridin-4-ylcarbamoyl)-benzylamide;compound withtrifluoro-acetic acid] | 86 nM |
| O=C(NCc1ccc(Cl)cc1)c1cc(-c2ccc(O)c(Cl)c2)n[nH]c1=O [Example 180, 6-(3-Chloro-4-hydroxy-phenyl)-3-oxo-2,3-dihydro-pyridazine-4-carboxylic acid 4-chloro-benzylamide] | 227 nM |
| O=C(NCc1ccc(Br)cc1)c1cc(-c2ccncc2)n[nH]c1=O [Example 75, 3-Oxo-6-pyridin-4-yl-2,3-dihydro-pyridazine-4-carboxylic acid 4-bromo-benzylamide;compound withtrifluoro-acetic acid] | 380 nM |
| Cc1cc(-c2cc(C(=O)NCc3ccc(Cl)cc3)c(=O)[nH]n2)ccc1O [Example 155] | 10300 nM |
| COc1cc(-c2cc(C(=O)NCc3ccc(Cl)cc3)c(=O)[nH]n2)ccc1O [Example 41, 6-(4-Hydroxy-3-methoxy-phenyl)-3-oxo-2,3-dihydro-pyridazine-4-carboxylic acid 4-chloro-benzylamide] | 2300 nM |
| O=C(NCc1ccc(Cl)cc1)c1cc(-c2cc(F)c(O)c(F)c2)n[nH]c1=O [Example 182, 6-(3,5-Difluoro-4-hydroxy-phenyl)-3-oxo-2,3-dihydro-pyridazine-4-carboxylic acid 4-chloro-benzylamide] | 170 nM |

Other lines, results leading:

| IC50 | Structure (SMILES) |
| --- | --- |
| 1 nM | COc1cc(-c2cc(C(=O)NCCCc3cccnc3)c(=O)[nH]n2)ccc1O [Example 49, 6-(4-Hydroxy-3-methoxy-phenyl)-3-oxo-2,3-dihydro-pyridazine-4-carboxylic acid (3-pyridin-3-yl-propyl)-amide] |
| 5 nM | Cc1cc(-c2cc(C(=O)NCc3ccc(C(=O)O)cc3)c(=O)[nH]n2)cc(C)c1O [Example 32, 4-({[6-(4-Hydroxy-3,5-dimethyl-phenyl)-3-oxo-2,3-dihydro-pyridazine-4-carbonyl]-amino}-methyl)-benzoic acid] |
| 30 nM | CNc1cc(-c2cc(C(=O)NCc3ccc(Cl)cc3)c(=O)[nH]n2)ccn1 [Example 206, 6-(2-Methylamino-pyridin-4-yl)-3-oxo-2,3-dihydro-pyridazine-4-carboxylic acid 4-chloro-benzylamide] |
| 17 nM | O=C(NCc1ccc(Cl)cc1)c1cc(-c2ccnc(NCCN3CCOCC3)n2)n[nH]c1=O [Example 175, 6-[2-(2-Morpholin-4-yl-ethylamino)-pyrimidin-4-yl]-3-oxo-2,3-dihydro-pyridazine-4-carboxylic acid 4-chloro-benzylamide;compound withtrifluoro-acetic acid] |
| 7 nM | O=C(NCCCc1cccnc1)c1cc(-c2ccc(O)cc2)n[nH]c1=O [Example 164, 6-(4-Hydroxy-phenyl)-3-oxo-2,3-dihydro-pyridazine-4-carboxylic acid (3-pyridin-3-yl-propyl)-amide] |
| 9 nM | COc1cc(-c2cc(C(=O)NCc3ccc(C(=O)O)cc3)c(=O)[nH]n2)ccc1O [Example 225, 4-({[6-(4-Hydroxy-3-methoxy-phenyl)-3-oxo-2,3-dihydro-pyridazine-4-carbonyl]-amino}-methyl)-benzoic acid] |
| 24 nM | C[C@@H](Nc1nccc(-c2cc(C(=O)NCCCc3ccccc3)c(=O)[nH]n2)n1)c1ccccc1 [Example 215, R-3-Oxo-6-[2-(1-phenyl-ethylamino)-pyrimidin-4-yl]-2,3-dihydro-pyridazine-4-carboxylic acid(3-phenyl-propyl)-amide] |
| 22 nM | CCCCNc1nccc(-c2cc(C(=O)NCCCN3CCN(C)CC3)c(=O)[nH]n2)n1 [Example 218, 6-(2-Butylamino-pyrimidin-4-yl)-3-oxo-2,3-dihydro-pyridazine-4-carboxylic acid [3-(4-methyl-piperazin-1-yl)-propyl]-amide;compound withtrifluoro-acetic acid] |
| 29 nM | CCCCNc1nccc(-c2cc(C(=O)NCc3cccnc3)c(=O)[nH]n2)n1 [Example 219, 6-(2-Butylamino-pyrimidin-4-yl)-3-oxo-2,3-dihydro-pyridazine-4-carboxylic acid(pyridin-3-ylmethyl)-amide] |

Tested on: not given
Test: not given
Settings: not given

| melting point | Structure (SMILES) |
| --- | --- |
| 258 °C | O=C(NCc1ccccc1)c1cc(-c2ccncc2)n[nH]c1=O [Example 3, N-benzyl-3-oxo-6-pyridin-4-yl-2,3-dihydropyridazine-4-carboxamide] |
| 202 °C | O=C(NCCc1ccc(Cl)cc1Cl)c1cc(-c2ccncc2)n[nH]c1=O [Example 6, N-[2-(2,4-dichlorophenyl)ethyl]-3-oxo-6-pyridin-4-yl-2,3-dihydropyridazine-4-carboxamide] |
| 242 °C | O=C(NCc1ccccn1)c1cc(-c2ccncc2)n[nH]c1=O [Example 15, 3-oxo-6-pyridin-4-yl-N-(pyridin-2-ylmethyl)-2,3-dihydropyridazine-4-carboxamide] |
| 224 °C | O=C(NCc1cccc(C(F)(F)F)c1)c1cc(-c2ccncc2)n[nH]c1=O [Example 9, 3-oxo-6-pyridin-4-yl-N-[3-(trifluoromethyl)benzyl]-2,3-dihydropyridazine-4-carboxamide] |
